Laboratory results published in patent publication US20250034167A1, “HETEROCYCLIC COMPOUNDS AND METHODS OF USE” (AMGEN INC., priority 2021, published 2025).
Like-named read-outs stand apart in the source and are kept apart here.

Columns and labels:
[1] = test system: Phosphorylation of ERK1/2 in AsPC-1 cells; test: Phospho-ERK1/2 MSD Assay; type: cell-based
Experimental: Sixteen hours prior to compound treatment, AsPC-1 cells were seeded in 96-well cell culture plates at a density of 25,000 cells/well and incubated at 37° C., 5% CO2. A compound dose-response titration was diluted in growth media, added to appropriate wells of a cell culture plate, and then incubated at 37° C., 5% CO2 for 2 hours.

[2] = target: His-tagged KRAS G12D protein (Homo sapiens, UniProt P01116, G12D); test: biochemical
Experimental: The plate was incubated for 30 minutes at room temperature. Biotinylated KRPep-2d substrate (Amgen) was diluted to nM in Assay Buffer and 2 μL was added to all wells and incubated for 1 hour at room temperature. Detection Reagent (0.4 nM LANCE Eu-W1024 Anti-6×His (Perkin Elmer AD0401), 5 nM streptavidin-d2 (Cisbio 610SADLA)) was prepared in Assay Buffer, then 4 µL was added to the plate and incubated for 1 hour at room temperature.

[3] = Homo sapiens, ASPC1, 2 h, read-out: 2 h p-ERK (AsPC-1 cells), IC50, AsPC-1 cells, 2 h compound treatment
[4] = read-out: 2 h p-ERK (AsPC-1 cells), IC50, AsPC-1 cells, 2 h compound treatment

Sequence of His-tagged KRAS G12D protein (P01116 1-188 isoform P01116-2 G12D): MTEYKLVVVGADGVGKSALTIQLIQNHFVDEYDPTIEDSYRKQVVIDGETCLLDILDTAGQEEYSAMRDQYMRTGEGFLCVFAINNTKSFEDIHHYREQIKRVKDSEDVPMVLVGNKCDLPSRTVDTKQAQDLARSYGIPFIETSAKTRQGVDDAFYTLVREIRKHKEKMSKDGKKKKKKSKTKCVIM

SMILES: CCc1c(F)ccc2cc(O)cc(-c3ncc4c(N5CCCC(O)(C(N)=O)C5)nc(OC[C@@]56CCCN5C[C@H](F)C6)nc4c3F)c12 (stereo partly drawn) [Example 159, 1-(7-(8-Ethyl-7-fluoro-3-hydroxy-naphthalen-1-yl)-8-fluoro-2-(((2R,7aS)-2-fluorotetrahydro-1H-pyrrolizin-7a(5H)-yl)methoxy)pyrido[4,3-d]pyrimidin-4-yl)-3-hydroxypiperidine-3-carboxamide]
- IC50 [1, 3]: 3080 nM
- IC50 [2]: 2 nM

SMILES: CCc1c(F)ccc2cc(O)cc(-c3ncc4c(N5CCC[C@H]5C(N)=O)nc(OC[C@@]56CCCN5C[C@H](F)C6)nc4c3F)c12 [Example 4, (S)-1-(7-(8-Ethyl-7-fluoro-3-hydroxynaphthalen-1-yl)-8-fluoro-2-(((2R,7aS)-2-fluorotetrahydro-1H-pyrrolizin-7a(5H)-yl)methoxy)pyrido[4,3-d]pyrimidin-4-yl)pyrrolidine-2-carboxamide]
- IC50 [1, 3]: > 10000 nM
- IC50 [2]: 21 nM

SMILES: CCc1c(F)ccc2cc(O)cc(-c3ncc4c(N5CCC(S(N)(=O)=O)CC5)nc(OC[C@@]56CCCN5C[C@H](F)C6)nc4c3F)c12 [Example 85, 1-(7-(8-Ethyl-7-fluoro-3-hydroxynaphthalen-1-yl)-8-fluoro-2-(((2R,7aS)-2-fluorotetrahydro-1H-pyrrolizin-7a(5H)-yl)methoxy)pyrido[4,3-d]pyrimidin-4-yl)piperidine-4-sulfonamide]
- IC50 [1, 3]: > 10000 nM
- IC50 [2]: 37 nM

SMILES: CCc1c(F)ccc2cc(O)cc(-c3ncc4c(N5C[C@H](O)C[C@@H](O)C5)nc(OC[C@@]56CCCN5C[C@H](F)C6)nc4c3F)c12 [Example 102, (3R,5R)-1-(7-(8-Ethyl-7-fluoro-3-hydroxynaphthalen-1-yl)-8-fluoro-2-(((2R,7aS)-2-fluorotetrahydro-1H-pyrrolizin-7a(5H)-yl)methoxy)pyrido[4,3-d]pyrimidin-4-yl)piperidine-3,5-diol]
- IC50 [1, 3]: 1900 nM
- IC50 [2]: 2 nM

SMILES: CCc1c(F)ccc2cc(O)cc(-c3ncc4c(N5CC6CC(C#N)C(C6)C5)nc(OC[C@@]56CCCN5C[C@H](F)C6)nc4c3F)c12 (single isomer, unassigned) [Example 145]
- IC50 [1, 4]: 593 nM
- IC50 [2]: 8 nM

SMILES: CCc1c(F)ccc2cc(O)cc(-c3ncc4c(N5CC(C)CC(C(N)=O)C5)nc(OC[C@@]56CCCN5C[C@H](F)C6)nc4c3F)c12 (single isomer, unassigned) [Example 164]
- IC50 [1, 4]: 1200 nM
- IC50 [2]: 3 nM

SMILES: C=CCC1CCCc2cc(O)cc(-c3ncc4c(N5CCC[C@@](C)(O)C5)nc(OC[C@@]56CCCN5C[C@H](F)C6)nc4c3F)c21 (stereo partly drawn) [Example 175, (3R)-1-(7-(8-Allyl-3-hydroxy-5,6,7,8-tetrahydro-naphthalen-1-yl)-8-fluoro-2-(((2R,7aS)-2-fluorotetrahydro-1H-pyrrolizin-7a(5H)-yl)methoxy)pyrido[4,3-d]pyrimidin-4-yl)-3-methyl-piperidin-3-ol]
- IC50 [1, 3]: 10 nM
- IC50 [2]: 8 nM

SMILES: CCc1c(F)ccc2cc(O)cc(-c3ncc4c(N5CC(O)CC(F)(F)C5)nc(OC[C@@]56CCCN5C[C@H](F)C6)nc4c3F)c12 (stereo partly drawn) [Example 118, 1-(7-(8-Ethyl-7-fluoro-3-hydroxynaphthalen-1-yl)-8-fluoro-2-(((2R,7aS)-2-fluorotetrahydro-1H-pyrrolizin-7a(5H)-yl)methoxy)pyrido[4,3-d]pyrimidin-4-yl)-5,5-difluoropiperidin-3-ol]
- IC50 [1, 3]: 105 nM
- IC50 [2]: 3 nM

SMILES: CCc1c(F)ccc2cc(O)cc(-c3ncc4c(N5CCC(C(N)=O)C5)nc(OC[C@@]56CCCN5C[C@H](F)C6)nc4c3F)c12 (stereo partly drawn) [Example 3, 1-(7-(8-Ethyl-7-fluoro-3-hydroxynaphthalen-1-yl)-8-fluoro-2-(((2R,7aS)-2-fluorotetrahydro-1H-pyrrolizin-7a(5H)-yl)methoxy)pyrido[4,3-d]pyrimidin-4-yl)pyrrolidine-3-carboxamide]
- IC50 [1, 3]: > 10000 nM
- IC50 [2]: 9 nM

SMILES: CCc1c(F)ccc2cc(O)cc(-c3ncc4c(N5CC(C)(O)C5)nc(OC[C@@]56CCCN5C[C@H](F)C6)nc4c3F)c12 [Example 92, 1-(7-(8-Ethyl-7-fluoro-3-hydroxynaphthalen-1-yl)-8-fluoro-2-(((2R,7aS)-2-fluorotetrahydro-1H-pyrrolizin-7a(5H)-yl)methoxy)pyrido[4,3-d]pyrimidin-4-yl)-3-methylazetidin-3-ol]
- IC50 [1, 3]: 6620 nM
- IC50 [2]: 83 nM

SMILES: CCc1c(F)ccc2cc(O)cc(-c3ncc4c(N5CC(C)CC(O)C5)nc(OC[C@@]56CCCN5C[C@H](F)C6)nc4c3F)c12 (mixture of isomers) [Example 96, rac-(3R,5S)-1-(7-(8-Ethyl-7-fluoro-3-hydroxynaphthalen-1-yl)-8-fluoro-2-(((2R,7aS)-2-fluorotetrahydro-1H-pyrrolizin-7a(5H)-yl)methoxy)pyrido[4,3-d]pyrimidin-4-yl)-5-methylpiperidin-3-ol]
- IC50 [1, 3]: 119 nM
- IC50 [2]: 5 nM

SMILES: CCc1c(F)ccc2cc(O)cc(-c3ncc4c(N5CCC[C@@](C)(O)C5)nc(OCC56CCCN5CCC6)nc4c3F)c12 [Example 179, (R)-1-(7-(8-Ethyl-7-fluoro-3-hydroxynaphthalen-1-yl)-8-fluoro-2-((tetrahydro-1H-pyrrolizin-7a(5H)-yl)methoxy)pyrido[4,3-d]pyrimidin-4-yl)-3-methylpiperidin-3-ol]
- IC50 [1, 3]: 18 nM
- IC50 [2]: 5 nM

SMILES: CCc1c(F)ccc2cc(O)cc(-c3ncc4c(N5C[C@H](O)[C@@H](O)C5)nc(OC[C@@]56CCCN5C[C@H](F)C6)nc4c3F)c12 [Example 117, (3S,4S)-1-(7-(8-Ethyl-7-fluoro-3-hydroxynaphthalen-1-yl)-8-fluoro-2-(((2R,7aS)-2-fluorotetrahydro-1H-pyrrolizin-7a(5H)-yl)methoxy)pyrido[4,3-d]pyrimidin-4-yl)pyrrolidine-3,4-diol]
- IC50 [1, 3]: > 10000 nM
- IC50 [2]: 9 nM

SMILES: CCc1c(F)ccc2cc(O)cc(-c3ncc4c(N5CCC[C@@](C)(CO)C5)nc(OC[C@@]56CCCN5C[C@H](F)C6)nc4c3F)c12 [Example 67, 5-Ethyl-6-fluoro-4-(8-fluoro-2-(((2R,7aS)-2-fluorotetrahydro-1H-pyrrolizin-7a(5H)-yl)methoxy)-4-((R)-3-(hydroxymethyl)-3-methylpiperidin-1-yl)pyrido[4,3-d]pyrimidin-7-yl)naphthalen-2-ol]
- IC50 [1, 3]: 816 nM
- IC50 [2]: 19 nM

SMILES: CCc1c(F)ccc2cc(O)cc(-c3ncc4c(N5CCC[C@@H](C(=O)O)C5)nc(OC[C@@]56CCCN5C[C@H](F)C6)nc4c3F)c12 [Example 138, (R)-1-(7-(8-Ethyl-7-fluoro-3-hydroxynaphthalen-1-yl)-8-fluoro-2-(((2R,7aS)-2-fluorotetrahydro-1H-pyrrolizin-7a(5H)-yl)methoxy)pyrido[4,3-d]pyrimidin-4-yl)piperidine-3-carboxylic acid]
- IC50 [1, 3]: > 10000 nM
- IC50 [2]: 16 nM

SMILES: CCc1c(F)ccc2cc(O)cc(-c3ncc4c(N5CC6CC(O)C6C5)nc(OC[C@@]56CCCN5C[C@H](F)C6)nc4c3F)c12 (stereo partly drawn) [Example 9, 3-(7-(8-Ethyl-7-fluoro-3-hydroxynaphthalen-1-yl)-8-fluoro-2-(((2R,7aS)-2-fluorotetrahydro-1H-pyrrolizin-7a(5H)-yl)methoxy)pyrido[4,3-d]pyrimidin-4-yl)-3-azabicyclo[3.2.0]heptan-6-ol]
- IC50 [1, 3]: 1340 nM
- IC50 [2]: 5 nM

SMILES: CCc1c(F)ccc2cc(O)cc(-c3ncc4c(N5CCCC(C#N)CC5)nc(OC[C@@]56CCCN5C[C@H](F)C6)nc4c3F)c12 (single isomer, unassigned) [Example 54]
- IC50 [1, 4]: 116 nM
- IC50 [2]: 3 nM
